# Entries after “also recorded” stand apart in the source; their conditions may differ. Like-named read-outs stand apart in the source and are kept apart here. [ ]: non-standard residue; d: D form. pGlu = O=C1CC[C@@H](C(=O)O)N1
# Legend:
# FSH or LH release = settings: Yu et al., Brain Res. Bull. 1990; cited from earlier work
# [1] = tested on: FSH release from hemi-anterior pituitaries of adult male rats; assay: FSH release in vitro, incubation with hemi-anterior pituitaries of male rats (RIA); type: cell-based, rat; settings: for FSH (ng/ml) / FSH: 3 hr incubation
# Experimental: (§1) Adult male and female Sprague-Dawley rats (Holtzmann, Madison, Wis.; 200-250 g) were housed two per cage under controlled conditions of temperature (23-25° C.) and lighting (on from 0500 to 1700 hr). The animals had free access to a pellet diet and to tap water.
# (§2) After acclimatization for 5 or more days in the vivarium, male rats were killed by decapitation. Following removal of the posterior lobe, the anterior pituitary (AP) was bisected longitudinally, and each AP was incubated in a tube containing 0.5 ml Krebs-Ringer bicarbonate (5 mM ascorbic acid; pH 7.4) buffer (KRB) in an atmosphere of 95% O2/5% CO2 in a Dubnoff shaker (50 cycles per min) for a period of 60 min. Following this pre-incubation period, the APs were incubated for 3 hr in fresh KRB buffer alone (control), or in KRB containing one of various concentrations of synthetic mammalian (m)-LHRH, l-LHRH-III, l-LHRH-I, chicken (c)-LHRH-II, or salmon (s)-LHRH. The medium was then aspirated, and was stored frozen at −20° C. until radio-immunoassays (RIA) for FSH and LH were conducted. FSH and LH were measured using kits supplied by the National Institute of Arthritis Digestive Diabetes and Kidney Disease; hormone values were expressed in terms of NIH-rFSH-RP-2 and NIH-rLH-RP-3 standards. The experiments were repeated twice. The inter- and intra-assay coefficients of variation for FSH assays were 7.5% and 5.2%, respectively; and were 6.5% and 4.8% for LH assays.
# [2] = tested on: LH release from hemi-anterior pituitaries of adult male rats; assay: LH release in vitro, incubation with hemi-anterior pituitaries of male rats (RIA); type: cell-based, rat; settings: for LH / LH (ng/ml): 3 hr incubation
# Experimental: as §1, §2
# plasma FSH = assay: FSH release in vivo, ovariectomized estrogen/progesterone-treated female rats, intravenous injection; set-up: species or system rat; settings: for Change in FSH from baseline, 10 minutes in post-injection (ng/ml): 10 minutes post-injection, saline −3.85 ± 0.82
# Experimental: as §1
# (§3) Female rats were ovariectomized under anesthesia with isoflurane 4 weeks prior to the in vivo experiments. Three days before blood sampling, each ovariectomized rat was injected subcutaneously with 50 μg estradiol benzoate (Sigma Chemical Co., St. Louis, Mo.) dissolved in 0.1 ml sesame oil, and 25 mg progesterone (Eli Lilly, Indianapolis, Ind.) dissolved in 0.5 ml sesame oil. One day prior to testing, each animal was implanted with a jugular-atrial catheter. On the morning of testing, polyethylene tubing (PE-50) was connected to the distal end of the jugular-atrial catheter on the rat's dorsum to facilitate blood sampling and intravenous injection. Animals were acclimatized one hour before initial blood samples were taken. Heparinized blood samples ([…]) were collected just before, and at 10, 30, and 60 minutes after injection of 0.5 ml isotonic saline or l-LHRH-III (10 or 100 pmole) in 0.5 ml isotonic saline. After removal of each blood sample, an equal volume of isotonic saline was administered to maintain blood volume.
# [3] = tested on: Petromryzon marinus (lamprey) ovaries; settings: Sower et al., Endocrinology 1993; cited from earlier work
# plasma LH = assay: LH release in vivo, ovariectomized estrogen/progesterone-treated female rats, intravenous injection; set-up: species or system rat; settings: for Change in LH from baseline, 10 minutes post-injection: saline −0.070 ± 0.122
# Experimental: as §1, §3
# [4] = tested on: selective FSH-releasing activity; assay: In vivo screening of known LHRH's from various species for selective FSH-releasing activity; settings: unpublished data of the applicant's laboratory
# Text: Our laboratory also screened known LHRH's from various species for selective FSH-releasing activity; and we also evaluated the activity of 25 analogs of LHRH in in vivo assays.
# [5] = Table 2, 10^−5M, KRB control 97.7 ± 20.4
# [6] = Table 2, 10^−6M, KRB control 97.7 ± 20.4
# [7] = Table 3, 10^−5M, KRB control 139.3 ± 16.9
# [8] = Table 3, 10^−6M, KRB control 139.3 ± 16.9
# [9] = 10 or 100 pmole intravenous, versus saline control
# [10] = Table 4, 10^−6M, KRB control 157.5 ± 13.2
# [11] = Table 4, 10^−7M, KRB control 157.5 ± 13.2
# [12] = Table 4, 10^−8M, KRB control 157.5 ± 13.2
# [13] = Table 5, 10^−6M, KRB control 149.3 ± 17.0
# [14] = Table 5, 10^−7M, KRB control 149.3 ± 17.0
# [15] = Table 5, 10^−8M, KRB control 149.3 ± 17.0
substance,measurement,setting,value
"[pGlu]HWSLEWKPG-NH2 [l-LHRH-I, reference compound]",activity in releasing FSH or LH in rats (result in words),FSH or LH release,relatively low activity in releasing either FSH or LH
same,FSH release in vitro (result in words),[1],small but statistically significant release of FSH; also recorded: minimal potency to release either FSH or LH
same,FSH (ng/ml),[1]; [5],**178.2 ± 17.0 ng/ml
same,FSH (ng/ml),[1]; [6],*164.0 ± 29.3 ng/ml
same,LH release in vitro (result in words),[2],inactive; also recorded: minimal potency to release either FSH or LH
same,LH,[2]; [7],120.4 ± 8.1 ng/mL
same,LH,[2]; [8],134.1 ± 23.2 ng/mL
pGlu-His-Trp-Ser-His-Asp-Trp-Lys-Pro-Gly-NH2 (XHWSHDWKPX; pyroGlu; C-terminal amide) [l-LHRH-III],"Change in FSH from baseline, 10 minutes in post-injection (ng/ml)",plasma FSH; 10 pmole intravenous,**−0.75 ± 0.37 ng/ml
same,"Change in FSH from baseline, 10 minutes in post-injection (ng/ml)",plasma FSH; 100 pmole intravenous,**−0.43 ± 0.61 ng/ml
same,FSH release in vivo (result in words),plasma FSH; [9],"increase in FSH in vivo (P<0.01) within ten minutes; also recorded: highly significant increase in plasma FSH 10 minutes after injection, an effect that vanished by 30 minutes post-injection; also recorded: slightly greater effect at 10 minutes that was maintained 30 minutes after injection; also recorded: caused the release of FSH in vivo, but not LH"
same,estradiol and progesterone release from lamprey ovaries (result in words),[3],stimulated estradiol and progesterone release
same,FSH release in vitro (result in words),[1],approximately equipotent toward releasing FSH
same,FSH (ng/ml),"[1]; Table 2, 10^−4M, KRB control 97.7 ± 20.4",****368.6 ± 40.9 ng/ml
same,FSH (ng/ml),[1]; [5],**283.0 ± 60.8 ng/ml
same,FSH (ng/ml),[1]; [6],**278.2 ± 40.9 ng/ml
same,FSH (ng/ml),"[1]; Table 2, 10^−7M, KRB control 97.7 ± 20.4",***213.0 ± 17.9 ng/ml
same,FSH (ng/ml),"[1]; Table 2, 10^−8M, KRB control 97.7 ± 20.4",**255.7 ± 42.4 ng/ml
same,FSH (ng/ml),"[1]; Table 2, 10^−9M, KRB control 97.7 ± 20.4",*228.3 ± 52.5 ng/ml
same,concentration of maximal effect on FSH release,"[1]; Table 2 experiment, levelled off through 10^−4 M",about 10^−6 M
same,minimal effective concentration (MEC) for FSH release,"[1]; Table 2 experiment, lowest concentration tested",≤ 10^−9 M
same,FSH,[1]; [10],215.0 ± 38.0 ng/mL
same,FSH (ng/ml),[1]; [11],*203.2 ± 16.4 ng/ml
same,FSH (ng/ml),[1]; [12],*249.3 ± 31.3 ng/ml
same,FSH,"[1]; Table 4, 10^−9M, KRB control 157.5 ± 13.2",196.3 ± 21.2 ng/mL
same,MEC for a statistically significant release of FSH relative to c-LHRH-II,[1]; Table 4 experiment,two orders of magnitude lower
same,"Change in LH from baseline, 10 minutes post-injection",plasma LH; 10 pmole intravenous,-0.022 ± 0.078 ng/mL
same,"Change in LH from baseline, 10 minutes post-injection",plasma LH; 100 pmole intravenous,0.097 ± 0.077 ng/mL
same,LH release in vivo (result in words),plasma LH; [9],no significant increase in LH; also recorded: Neither the 10 pmole nor the 100 pmole dose of l-LHRH-III produced a statistically significant difference in LH levels
same,LH release in vitro (result in words),[2],much weaker effect on LH release; also recorded: no LH-releasing activity
same,LH (ng/ml),"[2]; Table 3, 10^−4M, KRB control 139.3 ± 16.9",**236.6 ± 19.3 ng/ml
same,LH (ng/ml),[2]; [7],*202.9 ± 31.2 ng/ml
same,LH (ng/ml),[2]; [8],*233.6 ± 33.8 ng/ml
same,LH,"[2]; Table 3, 10^−7M, KRB control 139.3 ± 16.9",179.9 ± 28.4 ng/mL
same,LH,"[2]; Table 3, 10^−8M, KRB control 139.3 ± 16.9",165.7 ± 26.6 ng/mL
same,LH,"[2]; Table 3, 10^−9M, KRB control 139.3 ± 16.9",171.8 ± 27.3 ng/mL
same,concentrations active on LH release,[2]; Table 3 experiment,10^−6-10^−4 M
same,LH,[2]; [13],176.0 ± 9.3 ng/mL
same,LH,[2]; [14],182.7 ± 13.7 ng/mL
same,LH,[2]; [15],163.2 ± 6.5 ng/mL
same,LH,"[2]; Table 5, 10^−9M, KRB control 149.3 ± 17.0",158.7 ± 10.2 ng/mL
"pGlu-His-Trp-Ser-His-Gly-Trp-Tyr-Pro-Gly-NH2 (XHWSHGWYPX; HELM PEPTIDE1{[Glp].H.W.S.H.G.W.Y.P.G.[am]}$$$$V2.0; SMILES NC(=O)CNC(=O)[C@@H]1CCCN1C(=O)[C@H](Cc1ccc(O)cc1)NC(=O)[C@H](Cc1c[nH]c2ccccc12)NC(=O)CNC(=O)[C@H](Cc1c[nH]cn1)NC(=O)[C@H](CO)NC(=O)[C@H](Cc1c[nH]c2ccccc12)NC(=O)[C@H](Cc1c[nH]cn1)NC(=O)[C@@H]1CCC(=O)N1) [c-LHRH-II, reference compound]",selectivity for FSH release in vivo (result in words),[4],slight selectivity for FSH release
same,selectivity for FSH release in vivo (result in words),[4]; listed as chicken (c) LHRH-II,slightly preferential FSH-releasing activity in vivo
same,FSH release in vitro (result in words),[1],low potency
same,FSH (ng/ml),[1]; [10],***263.7 ± 17.8 ng/ml
same,FSH,[1]; [11],209.3 ± 44.0 ng/mL
same,FSH,[1]; [12],123.7 ± 18.0 ng/mL
same,concentration significantly increasing FSH release,"[1]; Table 4 experiment, highest concentration tested",10^−6 M
same,LH release in vitro (result in words),[2],equivalent LH-releasing activity to that of m-LHRH
same,LH (ng/ml),[2]; [13],*239.0 ± 31.7 ng/ml
same,LH (ng/ml),[2]; [14],*216.3 ± 17.7 ng/ml
same,LH (ng/ml),[2]; [15],*199.3 ± 13.6 ng/ml
same,LH release in vitro (result in words),[2]; listed as Chicken (c) LHRH-II,stimulated LH release
"pGlu-His-Trp-Ser-Tyr-Gly-Trp-Leu-Pro-Gly-NH2 (XHWSYGWLPX; HELM PEPTIDE1{[Glp].H.W.S.Y.G.W.L.P.G.[am]}$$$$V2.0; SMILES CC(C)C[C@H](NC(=O)[C@H](Cc1c[nH]c2ccccc12)NC(=O)CNC(=O)[C@H](Cc1ccc(O)cc1)NC(=O)[C@H](CO)NC(=O)[C@H](Cc1c[nH]c2ccccc12)NC(=O)[C@H](Cc1c[nH]cn1)NC(=O)[C@@H]1CCC(=O)N1)C(=O)N1CCC[C@H]1C(=O)NCC(N)=O) [s-LHRH, reference compound]",FSH,[1]; [10],203.2 ± 39.2 ng/mL
same,FSH (ng/ml),[1]; [11],*233.0 ± 37.4 ng/ml
same,FSH release in vitro (result in words),[1]; listed as Salmon (s)-LHRH,stimulated the release of both FSH and LH
same,FSH release in vitro (result in words),[1]; listed as Salmon LHRH,low potency
same,LH release in vitro (result in words),[2],stimulated the release of both FSH and LH
same,LH,[2]; [13],186.2 ± 13.6 ng/mL
same,LH (ng/ml),[2]; [14],*230.8 ± 38.8 ng/ml

# Reference: patent US6407205B1, “FSH-releasing peptides” (Board of Supervisors of Louisiana State University and …, priority 1997, dated 2002)
